Laboratory results taken from patent US20060275268A1, “COMPOSITIONS FOR ACTIVATING THE INFILTRATION ACTIVITY OF DENDRITIC CELLS, AND IMMUNOPOTENTIATING AGENTS” (priority 2003, published 2006).

Key:
[1] = system: dendritic cells; assay: Infiltration activity of dendritic cells by the Transwell Chamber method (Matrigel); format: cell-based, human; conditions: for infiltration activity of immature and mature dendritic cells: 10 ng/ml added, FIG. 8
Method: Peripheral blood mononuclear cells (PBMCs) from healthy subjects were separated by Ficoll-Paque density gradient centrifugation. Peripheral blood mononuclear cells were dispersed at a cell density of 2×10^6 cells/ml in complete RPMI-1640e medium, and the resulting suspension is incubated at 37° C. for one hour to give adhesive cells. Nonadhesive cells were removed by washing five times with RPMI-1640 medium. The adhesive cells were cultured in RPMI medium containing 1000 U/ml GM-CSF and 1000 U/ml IL-4, 10% FBS, 25 mM HEPES, 2 mM L-glutamic acid, 50 μM 2-ME, 1% nonessential amino acids, and 2 mM sodium pyruvate under hypoxic conditions (oxygen concentration was 1%; herein, hypoxic conditions refer to conditions where the oxygen concentration is 1%) or normoxic conditions (oxygen concentration was 20%; herein, normoxic conditions refer to conditions where the oxygen concentration is 20%) at 37° C. under an 5% carbon dioxide atmosphere for six days with half of the medium being changed every day. On day six, the cells were collected and divided into two groups. The first group was cultured in a medium containing IL-4 and GM-CSF for one day, and then used as immature dendritic cells. […]
The infiltration activity of dendritic cells was measured by the Transwell Chamber method using the following procedure: a Matrigel was immobilized onto a membrane that separates a top chamber and a bottom chamber; after washing, dendritic cells were placed in the top chamber; 100 ng/ml recombinant human RANTES was placed in the bottom chamber when immature dendritic cells were used, or 100 ng/ml recombinant human MCP-3 was placed in the bottom chamber when mature dendritic cells were used; cells migrating into the bottom chamber were counted. […]
The mature dendritic cells obtained in Example 1 were cultured in the culture medium supplemented with 1 μM all-trans retinoic acid to induce their differentiation. Then, the infiltration activity of dendritic cells was determined by the same procedure described in Example 7.

[2] = system: MMP-9 mRNA; assay: MMP-9 mRNA level in mature dendritic cells after induction of differentiation; format: cell-based, human; conditions: medium with 1 μM for three days, or 5 μM for one day then 1 μM for two days, FIG. 9
Method: Total RNA was isolated from the cultured cells (1×10^6 cells) using TRIzol reagent (Life Technologies). Each RNA sample (2 μg) was converted to cDNA in 50 μl of reaction mixture containing 75 mM KCl, 50 mM Tris-HCl (pH 8.3), 3 mM MgCl2, 10 mM dithiothreitol, 0.5 mM each of dNTPs, 2 μM random primer, and 1000 U of TaqMan Reverse Transcription reagent. Each cDNA (10 ng) was amplified in triplicate using an SYBR-Green PCR assay kit, and sequenced using an ABI PRISM 7900HT sequence Detection System. PCR was carried out by incubation at 50° C. for 2 minutes and then at 95° C. for 15 minutes, followed by 15 cycles of denaturation at 95° C., 30 cycles of annealing at 60° C., and extension at 72° C. for 1 minute. […] The mature dendritic cells obtained in Example 1 were cultured in the culture medium supplemented with 1 μM all-trans retinoic acid for three days or in the culture medium supplemented with 5 μM all-trans retinoic acid for one day. The cells were further cultured in the culture medium supplemented with 1 μM all-trans retinoic acid for two days, to induce the differentiation of the dendritic cells. After the induction of the differentiation, MMP-9 mRNA level in the cells was determined.

Molecule	infiltration activity of dendritic cells ([1]; mature dendritic cells differentiated under hypoxic conditions, 1 μM in culture medium, FIG. 10)	MMP-9 mRNA level in the cells [2]	infiltration activity of immature and mature dendritic cells ([1]; cells differentiated under hypoxic conditions)	infiltration activity of immature and mature dendritic cells ([1]; cells differentiated under normoxic conditions)
CC1=C(/C=C/C(C)=C/C=C/C(C)=C/C(=O)O)C(C)(C)CCC1 [all-trans retinoic acid]	increased	increased		
TIMP-1 protein: TIMP-1 is an MMP-9-specific inhibitor; protein added at 10 ng/ml			not changed	reduced
